Each structure is given as a SMILES string. Structures can show the parent of a compound that is named as a salt.

For 18 compounds, Ki results are on record in US20090093633A1, “Organic Compounds” (Novartis AG, priority 2006, published 2009).

The assay deals with adenosine A2A receptor (Homo sapiens, UniProt P29274). The experiment in a line: adenosine A2A receptor agonist assay (method of Murphree et al, Molecular Pharmacology 61, 455-462 (2002)). Format: binding. The note with it: method of L. J. Murphree et al, Mol. Pharmacol. 61, 455-462 (2002). An excerpt: Compounds of formula I and their pharmaceutically acceptable salts are useful as pharmaceuticals. In particular, they activate the adenosine A2A receptor, i.e. they act as A2A receptor agonists.
Chain of adenosine A2A receptor (P29274 whole entry): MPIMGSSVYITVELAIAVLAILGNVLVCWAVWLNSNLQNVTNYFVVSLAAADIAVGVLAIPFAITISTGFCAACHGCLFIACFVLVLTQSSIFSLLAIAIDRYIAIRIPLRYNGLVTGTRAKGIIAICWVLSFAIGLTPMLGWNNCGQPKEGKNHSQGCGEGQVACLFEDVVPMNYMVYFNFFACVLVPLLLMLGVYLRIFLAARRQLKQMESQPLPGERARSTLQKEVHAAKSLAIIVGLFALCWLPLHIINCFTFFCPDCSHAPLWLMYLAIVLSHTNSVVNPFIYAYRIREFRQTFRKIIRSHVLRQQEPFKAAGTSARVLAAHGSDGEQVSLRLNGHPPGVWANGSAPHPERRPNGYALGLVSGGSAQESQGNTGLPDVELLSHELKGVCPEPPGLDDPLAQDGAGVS
`Cc1nnn([C@H]2C[C@@H](n3cnc4c(NCC(c5ccccc5)c5ccccc5)nc(N5CC[C@@H](NS(C)(=O)=O)C5)nc43)[C@H](O)[C@@H]2O)n1` [Example 67, N-{(R)-1-[9-[(1R,2S,3R,4S)-2,3-Dihydroxy-4-(5-methyl-tetrazol-2-yl)-cyclopentyl]-6-(2,2-diphenyl-ethylamino)-9H-purin-2-yl]pyrrolidin-3-yl}-methanesulfonamide] registered a Ki of 0.071 µM.

`O=C(NC1CCN(c2ccc(C(=O)O)cn2)CC1)N[C@@H]1CCN(c2nc(NCC(c3ccccc3)c3ccccc3)c3ncn([C@@H]4C[C@H](n5cc(CO)cn5)[C@@H](O)[C@H]4O)c3n2)C1` [Example 86, 4-(3-{(R)-1-[9-[(1R,2S,3R,4S)-2,3-Dihydroxy-4-(4-hydroxymethyl-pyrazol-1-yl)-cyclopentyl]-6-(2,2-diphenyl-ethylamino)-9H-purin-2-yl]-pyrrolidin-3-yl}-ureido)-3,4,5,6-tetrahydro-2H-[1,2′]bipyridinyl-5′-carboxylic acid trifluoroacetate]: the Ki was 0.04 µM.

For the compound `CCc1nnn([C@H]2C[C@@H](n3cnc4c(NCC(c5ccccc5)c5ccccc5)nc(N5CC[C@@H](NC(=O)NCc6ccnc7ccccc67)C5)nc43)[C@H](O)[C@@H]2O)n1` [Example 150, 1-((R)-1-{6-(2,2-Diphenyl-ethylamino)-9-[(1R,2S,3R,4S)-4-(5-ethyl-tetrazol-2-yl)-2,3-dihydroxy-cyclopentyl]-9H-purin-2-yl}-pyrrolidin-3-yl)-3 quinolin-4-ylmethyl-urea hydrochloride], the Ki stood at 0.006 µM.

Regarding `Cc1cnn([C@H]2C[C@@H](n3cnc4c(N)nc(N[C@@H]5CCC[C@H]5OCc5ccccc5)nc43)[C@H](O)[C@@H]2O)c1` [Example 22, (1R,2S,3R,5S)-3-[6-Amino-2-((1R,2R)-2-benzyloxy-cyclopentylamino)-purin-9-yl]-5-(4-methyl-pyrazol-1-yl)-cyclopentane-1,2-diol], the affinity, expressed as Ki, was 0.138 µM.

For `O=C(NC1CCN(c2ccccn2)CC1)N[C@@H]1CCN(c2nc(NCC(c3ccccc3)c3ccccc3)c3ncn([C@@H]4C[C@H](n5cc(CO)cn5)[C@@H](O)[C@H]4O)c3n2)C1` [Example 77, 1-{(R)-1-[9-[(1R,2S,3R,4S)-2,3-Dihydroxy-4-(4-hydroxymethyl-pyrazol-1-yl)-cyclopentyl]-6-(2,2-diphenyl-ethylamino)-9H-purin-2-yl]-pyrrolidin-3-yl}-3-(3,4,5,6-tetrahydro-2H-[1,2′]bipyridinyl-4-yl)-urea trifluoroacetate], the affinity corresponds to a Ki of 0.02 µM.

Compound `CCCCC#Cc1nc(N)c2ncn([C@@H]3C[C@H](n4cc(CO)cn4)[C@@H](O)[C@H]3O)c2n1` [Example 40, (1R,2S,3R,5S)-3-(6-Amino-2-hex-1-ynyl-purin-9-yl)-5-(4-hydroxymethyl-pyrazol-1-yl)-cyclopentane-1,2-diol] registered a Ki of 0.067 µM.

For `CCn1cnc(CCNc2nc(NCC(c3ccccc3)c3ccccc3)c3ncn([C@@H]4C[C@H](n5cc(CO)cn5)[C@@H](O)[C@H]4O)c3n2)c1` [Example 47, (1R,2S,3R,5S)-3-{6-(2,2-Diphenyl-ethylamino)-2-[2-(1-ethyl-1H-imidazol-4-yl)-ethylamino]-purin-9-yl}-5-(4-hydroxymethyl-pyrazol-1-yl)-cyclopentane-1,2-diol], the Ki turned out to be 0.01 µM.

For the compound `CCc1nnn([C@H]2C[C@@H](n3cnc4c(NCC(c5ccc(O)cc5)c5ccc(O)cc5)nc(N5CC[C@@H](NC(=O)Nc6ccncc6)C5)nc43)[C@H](O)[C@@H]2O)n1` [Example 109, 1-((R)-1-{6-[2,2-Bis-(4-hydroxy-phenyl)-ethylamino]-9-[(1R,2S,3R,4S)-4-(5-ethyl-tetrazol-2-yl)-2,3-dihydroxy-cyclopentyl]-9H-purin-2-yl}-pyrrolidin-3-yl)-3-pyridin-4-yl-urea hydrochloride], the Ki worked out at 0.005 µM.

The compound `Cc1cnn([C@H]2C[C@@H](n3cnc4c(NCC(c5ccccc5)c5ccccc5)nc(NCCc5cnc[nH]5)nc43)[C@H](O)[C@@H]2O)c1` [Example 4, (1R,2S,3R,5S)-3-{6-(2,2-Diphenyl-ethylamino)-2-[2-(3H-imidazol-4-yl)-ethylamino]-purin-9-yl}-5-(4-methyl-pyrazol-1-yl)-cyclopentane-1,2-diol] registered a Ki of 0.172 µM.

The compound `CCCCC#Cc1nc(N)c2ncn([C@@H]3C[C@H](n4cc(CC)cn4)[C@@H](O)[C@H]3O)c2n1` [Example 37, (1R,2S,3R,5S)-3-(6-Amino-2-hex-1-ynyl-purin-9-yl)-5-(4-ethyl-pyrazol-1-yl)-cyclopentane-1,2-diol] showed a Ki of 0.121 µM.

Turning to `CCc1nnn([C@H]2C[C@@H](n3cnc4c(NCC(c5ccccc5)c5ccccc5)nc(N5CC[C@@H](NC(=O)NC6CCN(c7ccccn7)CC6)C5)nc43)[C@H](O)[C@@H]2O)n1` [Example 45, 1-((R)-1-{6-(2,2-Diphenyl-ethylamino)-9-[(1R,2S,3R,4S)-4-(5-ethyl-tetrazol-2-yl)-2,3-dihydroxy-cyclopentyl]-9H-purin-2-yl}-pyrrolidin-3-yl)-3-(3,4,5,6-tetrahydro-2H-[1,2′]bipyridinyl-4-yl)-urea], the affinity corresponds to a Ki of 0.017 µM.

Consider `NC1CCC(Nc2nc(NCC(c3ccccc3)c3ccccc3)c3ncn([C@@H]4C[C@H](n5cccn5)[C@@H](O)[C@H]4O)c3n2)CC1` (stereo partly drawn) [Example 12, (1R,2S,3R,5S)-3-[2-(4-Amino-cyclohexylamino)-6-(2,2-diphenyl-ethylamino)-purin-9-yl]-5-pyrazol-1-yl-cyclopentane-1,2-diol], for which the Ki turned out to be 0.272 µM.

For `Cc1cnn([C@H]2C[C@@H](n3cnc4c(NCC(c5ccccc5)c5ccccc5)nc(NC5CCC(N)CC5)nc43)[C@H](O)[C@@H]2O)c1` (stereo partly drawn) [Example 1, (1R,2S,3R,5S)-3-[2-(4-Amino-cyclohexylamino)-6-(2,2-diphenyl-ethylamino)-purin-9-yl]-5-(4-methyl-pyrazol-1-yl)-cyclopentane-1,2-diol trifluoroacetate], the Ki was determined as 0.197 µM.

For `O=C(N[C@@H]1CCNC1)c1nc(NCC(c2ccccc2)c2ccccc2)c2ncn([C@@H]3C[C@H](n4cc(CO)cn4)C(O)C3O)c2n1` (stereo partly drawn) [Example 64, 9-[(1R,4S)-2,3-Dihydroxy-4-(4-hydroxymethyl-pyrazol-1-yl)-cyclopentyl]-6-(2,2-diphenyl-ethylamino)-9H-purine-2-carboxylic acid (R)pyrrolidin-3-yl amide], the Ki is 0.049 µM.

`CCc1cnn([C@H]2C[C@@H](n3cnc4c(NCCc5ccccc5)nc(NCCc5cn(CC)cn5)nc43)[C@H](O)[C@@H]2O)c1` [Example 54, (1R,2S,3R,5S)-3-{2-[2-(1-Ethyl-1H-imidazol-4-yl)-ethylamino]-6-phenethylamino-purin-9-yl}-5-(4-ethyl-pyrazol-1-yl)-cyclopentane-1,2-diol] came in with an inhibition constant Ki of 0.072 µM.

In turn, `CCc1cnn([C@H]2C[C@@H](n3cnc4c(NCC(c5ccccc5)c5ccccc5)nc(N5CC[C@@H](NC(=O)Nc6ccncc6)C5)nc43)[C@H](O)[C@@H]2O)n1` [Example 127, 1-((R)-1-{6-(2,2-Diphenyl-ethylamino)-9-[(1R,2S,3R,4S)-4-(4-ethyl-[1,2,3]triazol-2-yl)-2,3-dihydroxy-cyclopentyl]9H-purin-2-yl}-pyrrolidin-3-yl)-3-pyridin-4-yl-urea hydrochloride] came in with an inhibitory constant (Ki) of 0.003 µM.

`CN(C)[C@@H]1CCN(c2nc(NCC(c3ccccc3)c3ccccc3)c3ncn([C@@H]4C[C@H](n5cc(CO)cn5)[C@@H](O)[C@H]4O)c3n2)C1` [Example 96, (1R,2S,3R,5S)-3-[2-((R)-3-Dimethylamino-pyrrolidin-1-yl)-6-(2,2-diphenyl-ethylamino)-purin-9-yl]-5-(4-hydroxymethyl-pyrazol-1-yl)-cyclopentane-1,2-diol]: the inhibitory constant (Ki) came to 0.002 µM.

For `CCc1nnn([C@H]2C[C@@H](n3cnc4c(NCC(c5ccccc5)c5ccccc5)nc(N5CC[C@@H](NC(=O)Nc6cccc(-c7nnn[nH]7)c6)C5)nc43)[C@H](O)[C@@H]2O)n1` [Example 157, 1-((R)-1-{6-(2,2-Diphenyl-ethylamino)-9-[(1R,2S,3R,4S)-4-(5-ethyl-tetrazol-2-yl)-2,3-dihydroxy-cyclopentyl]-9H-purin-2-yl}-pyrrolidin-3-yl)-3-[3-(1H-tetrazol-5-yl)-phenyl]-urea hydrochloride], affinity was put at a Ki of 0.003 µM.

The Ki is a measure of affinity in units of concentration, obtained from inhibition or displacement. Read a high Ki as lower affinity.
